# Tested on: Zm-SHC-1 (squalene-hopene cyclase, SEQ ID NO: 2)
# Assay: Activity determination of the recombinant cyclase from E. coli LU15568 (conversion of homofarnesylic acid into sclareolide, GC)
# Format: biochemical, Zymomonas mobilis
# Details: E. coli LU15568 homogenate, pH 5.0, 37° C., 24 h, GC analysis
# Description: Inoculated from a suitable 2 ml preculture, E. coli LU15568 was grown for 16 h at 37° C. in 20 ml LB-Amp/Spec/Cm ([…]), 0.1 mM IPTG, 0.5 g/l rhamnose in 100 ml Erlenmeyer flasks (with baffles), centrifuged at 5000*g/10 min and stored at 4° C. Protein extract was prepared by suspending the cell pellet in 15 ml disruption buffer (0.2 M Tris/HCl, 0.5 M EDTA, pH 8.0), 375 U benzonase (for example Novagen, 25 U/μL), 40 μL PMSF (100 mM, dissolved in i-PropOH), 0.8 g sucrose and approx. 0.5 mg of lysozyme. The reaction mixture was mixed and incubated on ice for 30 min. Thereafter, the mixture was frozen at −20° C.
# After the reaction mixture had defrosted, it was made up to approx. 40 ml with distilled water and again incubated on ice for 30 min. […]
# The conversion of homofarnesylic acid (1b) into sclareolide (3) can be determined with the following GC system:
# • 0 min: 100° C. • 5° C./min to 200° C. • After 5 min: 30° C./min to 320° C. • thereafter constant • Duration of the method: 30 min Injector temperature: 280° C. Retention times (RT): • Homofarnesylic acid: peak 1 at 11.7 min, peak 2 at 12.1 min; • Sclareolide: approx. 13.5 min A calibration series, with the aid of which the concentration of unknown samples was determined, is established using authentic material (Sigma, catalog No.: 358002).
smiles,measurement,setting,value
"CC(C)=CCC/C(C)=C/CC/C(C)=C/CC(=O)O [Homofarnesylic acid, (3E,7E)-4,8,12-trimethyltrideca-3,7,11-trienoic acid]","conversion rate from the E,E isomer","20 mM homofarnesylic acid (E,E 74.93%)",82.7%
same,conversion rate in total,"20 mM homofarnesylic acid, sodium citrate buffer",74.5%

# Reference: patent publication US10954538B2, “Enzymatic cyclization of homofarnesylic acid” (BASF SE, priority 2016, dated 2021)
